# Results: ChEMBL document CHEMBL1125268, “Targeting renal dipeptidase (dehydropeptidase I) for inactivation by mechanism-based inactivators” (J Med Chem, 1991)
# T1: Dipeptidase 1 (Sus scrofa) (UniProt P22412)
# T1 sequence (whole entry): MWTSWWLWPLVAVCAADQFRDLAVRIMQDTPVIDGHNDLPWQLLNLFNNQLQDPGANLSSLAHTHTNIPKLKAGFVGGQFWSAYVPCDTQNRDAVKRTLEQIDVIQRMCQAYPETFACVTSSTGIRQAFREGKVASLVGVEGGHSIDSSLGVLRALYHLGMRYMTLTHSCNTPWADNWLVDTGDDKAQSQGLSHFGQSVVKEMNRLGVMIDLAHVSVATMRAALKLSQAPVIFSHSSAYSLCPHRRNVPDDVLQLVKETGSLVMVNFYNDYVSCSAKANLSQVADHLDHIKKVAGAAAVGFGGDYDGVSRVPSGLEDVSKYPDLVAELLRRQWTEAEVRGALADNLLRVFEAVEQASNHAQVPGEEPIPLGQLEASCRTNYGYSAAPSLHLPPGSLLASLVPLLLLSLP
# Key:
# [1] = target: T1, Dipeptidase 1 (Sus scrofa); experiment: The catalytic constant of the enzyme Renal dipeptidase was reported.
# [2] = target: T1, Dipeptidase 1 (Sus scrofa); experiment: The catalytic constant of the enzyme Inactivator of Renal dipeptidase was reported.
# [3] = target: T1, Dipeptidase 1 (Sus scrofa); experiment: The double -reciprocal analysis of the pseudo-first -order inactivation rates verses the inhibitor concentrations were calculated for Inactivator of Renal dipeptidase
# [4] = target: T1, Dipeptidase 1 (Sus scrofa); experiment: The double -reciprocal analysis of the pseudo-first -order inactivation rates verses the inhibitor concentrations were calculated for Renal dipeptidase
# [5] = substrate: C=C(CC(=O)CC#N)C(=O)O; experiment: (§1) Michaelis-Menten constant was reported for the compound against Renal dipeptidase
# [6] = substrate: C=C(NC(=O)CBr)C(=O)O; experiment: as §1
# [7] = compound: C=C(NC(=O)CC#N)C(=O)O; experiment: Michaelis-Menten constant was reported for the compound against Inactivator of Renal dipeptidase
molecule,measurement,setting,value
C=C(NC(=O)CBr)C(=O)O,k cat,[1],0.538 s⁻¹
C=C(NC(=O)CC#N)C(=O)O,k cat,[2],0.25 s⁻¹
same,K inact,[3],0.277 min⁻¹
C=C(CC(=O)CC#N)C(=O)O,K inact,[4],0.151 min⁻¹
same,k cat,[1],0.55 s⁻¹
"Dipeptidase 1 (Sus scrofa), P22412 (protein) MWTSWWLWPLVAVCAADQFRDLAVRIMQDTPVIDGHNDLPWQLLNLFNNQLQDPGANLSSLAHTHTNIPKLKAGFVGGQFWSAYVPCDTQNRDAVKRTLEQIDVIQRMCQAYPETFACVTSSTGIRQAFREGKVASLVGVEGGHSIDSSLGVLRALYHLGMRYMTLTHSCNTPWADNWLVDTGDDKAQSQGLSHFGQSVVKEMNRLGVMIDLAHVSVATMRAALKLSQAPVIFSHSSAYSLCPHRRNVPDDVLQLVKETGSLVMVNFYNDYVSCSAKANLSQVADHLDHIKKVAGAAAVGFGGDYDGVSRVPSGLEDVSKYPDLVAELLRRQWTEAEVRGALADNLLRVFEAVEQASNHAQVPGEEPIPLGQLEASCRTNYGYSAAPSLHLPPGSLLASLVPLLLLSLP",Km,[5],10300 µM
same,Km,[6],740 µM
same,Km,[7],416 µM
